From patent US5278045A, “Method and compositions to screen compounds for enhancement of the cholinergic, dopaminergic and serotonergic function” (Du Pont Merck Pharmaceutical Company, priority 1990, dated 1994)
Values belong to the molecule of their own block, whether it stands above or below them.

How the values were obtained:
[1] = molecular target: DuP 996 binding protein; experiment: Radioreceptor screening assay (displacement of tritiated DuP 996); parameters: species or system rat; details: inhibition of binding of 10 nM tritiated DuP 996, pH 7.4, 25° C., 60 minutes
Description: Male Sprague-Dawley rats (Charles River Breeding Laboratories) at 200-250 g were euthanatized by decapitation. Rat brain regions were dissected according to Heffner et al., Pharmacol. Biochem. Behav., 13, 453 (1980). Brain membranes were prepared by the method of Tam, Proc. Natl. Acad. Sci. USA, 80, 6703 (1983). The brain tissues were homogenized (20 sec) in 10 vol (wt/vol) of ice-cold 0.32M sucrose with a Brinkman Polytron (setting 8). The homogenate was centrifuged at 920×g for 10 min at 4° C. The supernatant was centrifuged at 47,000×g for 20 min. The resulting membrane pellet was resuspended in 10 vol (original wt/vol) of 50 mM Tris-HCl (pH 7.4) and incubated at 37° C. for 30 min to degrade and dissociate bound endogenous ligands. The membranes were then centrifuged at 47,000×g for 20 min and resuspended in 50 mM Tris-HCl.
Compounds to be screened were incubated with brain membranes. (1-2 mg protein) in 50 mM Tris-HCl buffer, pH 7.4, for 10 minutes in 25° C. Then 10 nM tritiated DuP 996 or its active structural analogs were added and incubated at 25° C. for 60 minutes. The samples were filtered on Whatman GF/B glass filters which had been soaked in 0.2% polyethylenimine and washed 3 times each with 5 ml of ice-cold Tris buffer. Nonspecific binding was determined by performing binding in the presence of 10 μM DuP 996. The control represents specific binding in the absence of compounds to be screened. Screened compounds which inhibited the specific binding of tritiated DuP 996 or analogs to its binding protein should be active in binding to the same protein. This is illustrated further in Example 4, Part B.

[2] = test system: DuP 996 binding protein; experiment: Phospholipase C pretreatment, binding of tritiated DuP 996; parameters: species or system rat; details: 5-50 μg/ml phospholipase C, 10 min, 37° C.
Description: (§1) One ml aliquots of brain membranes (1-2 mg of protein) in 50 mM Tris-HCl buffer, pH 7.4, were incubated with 5-50 μg/ml of phospholipase C for 10 min at 37° C. 10 nM of tritiated DuP 996 was added and incubated for 45 min at 25° C. Samples were filtered on Whatman GF/B filters which had been presoaked in 0.2% polyethylenimine under negative pressure and washed 3 times with ice-cold buffer. Nonspecific binding was determined in the presence of 10 μM DuP 996.

[3] = test system: Detergent Solubilized Rat Brain Membrane Proteins; experiment: Specific [^3 H]DuP 996 binding to detergent solubilized rat brain membrane proteins; details: 10 nM tritiated DuP 996
Description: […] The mixture was centrifuged at 47,000×g for 20 minutes. The supernatant containing the solubilized protein was collected. The supernatant from centrifugation of brain membranes without detergent was used as the control.
Fifty μl aliquots of the solubilized membrane protein were incubated with 0.2 ml of 50 mM Tris-HCl, pH 7.4, with 0.1% bovine serum albumin, and 10 nM tritiated DuP 996 in a total volume of 0.325 ml. Nonspecific binding was determined in the presence of 10 μM DuP 996. After 1 hour of incubation at 25° C., 0.5 ml of ice-cold 0.1M sodium phosphate buffer, pH 7.4, with 0.1% bovine gamma globulin was added. The sample was put on ice and then 0.5 ml of 25% (w/v) polyethylene glycol 8000 was added and mixed. The sample was put on ice for 10 to 15 minutes and filtered through Whatman GF/B filters which had been presoaked in 0.2% polyethylenimine. The filtered sample was washed twice with 3 ml each of ice cold 8% polyethylene glycol 8000 in 100 mM Tris-HCl, pH 7.4. Bound radioactivity retained on the filters was counted in a liquid scintillation counter.

[4] = test system: DuP 996 binding protein; experiment: Trypsin pretreatment, binding of tritiated DuP 996; parameters: species or system rat; details: 0.1-100 μg/ml trypsin, 25° C., 10 min
Description: as §1, with “0.1-100” for “5-50”, “trypsin (17,000 BAEE units/mg protein) at 25° C.” for “phospholipase C”, “min.” for “min at 37° C.”, “C. […].” for “C.”

[5] = test system: ACh release; experiment: Neurotransmitter release assay: stimulated ACh release from brain slices; parameters: species or system rat; details: concentration to enhance stimulated release of ACh by 100% (2-fold) over control, from dose response curves
Description: Male Wistar rats weighing 175-200 g were euthanatized and the brains were dissected out immediately. Slices (0.3 mm thick) from the parietal cortex were prepared manually by using a recessed Lucite® guide. Slices (1.5 mm thick) from the hippocampus and the caudate nucleus were prepared by using a slotted brain holder. All slices were subsequently cut into 0.25×0.25 mm squares with a McIlwain tissue chopper.
Labeling of transmitter stores in slices was prepared by the following methods. For ACh release, slices (approximately 100 mg wet weight) were incubated in 10 ml Krebs-Ringer (KR) medium containing (mM): NaCl(116), KCl(3), CaCl2 (1.3), MgCl2 (1.2), KH2 PO4 (1.2), Na2 SO4 (1.2), NaHCO3 (25) and glucose(11), to which 10 μCi ^3 H-choline (specific activity approx. 80 Ci/mmol: NEN) and 10 nmol unlabeled choline had been added to give a final concentration of 10^-6 M. Incubation was carried out for 30 min at 37° C. under a steady flow of 95% O2 /5% CO2. Under these conditions, part of the radioactive choline taken up is converted into radioactive ACh by cholinergic nerve endings, stored in synaptic vesicles, and released upon depolarization by high-K^+ -containing medium [Molenaar et al., 1973a]. For dopamine (DA), serotonin (5-HT), and norepinephrine (NE) release, slices (approximately 100 mg wet weight) were incubated in KR medium containing 0.01 mM nialamide at 37° C. under a steady flow of 95% O2 /5% CO2. The MAO-inhibitor nialamide was added to the medium in order to inhibit metabolism to the monoamines. Incubation was for 30 min in 10 ml of KR medium to which 10 μCi ^3 H-dopamine, ^3 H-norepinephrine, or ^3 H-5-hydroxytryptamine (specific activity 30, 45, and 78 Ci/mmol, respectively: all from NEN) had been added.
Separate experiments were performed for the release of each neurotransmitter. After labeling of the transmitter stores, the slices were washed three times with non-radioactive KR medium and transferred to a superfusion apparatus to measure the drug effects on transmitter release [Schoemaker et al., Psychopharmacology 74, 137 (1981)]. The superfusion apparatus consisted of 10 thermo-jacketed glass columns of 5 mm diameter which were provided with GF/F glass fiber filters to support the brain slices (approximately 10 mg tissue/column). Superfusion was carried out with KR medium at a rate of 0.3 ml/min. For ACh release, 10^-5 M hemicholinium-3 was added to the medium to prevent the uptake of choline formed during superfusion from phospholipids and released ACh, so that it could not be subsequently converted into newly synthesized ACh, which would be released in preference to the pre-formed, labeled ACh. The medium was delivered by a 25-channel peristaltic pump (Ismatec; Brinkman) and maintained at 37° C. by a thermostated stainless-steel heating coil before entering the superfusion column. Each column was provided with a four-way slider valve (Beckman Instruments) which allowed rapid change of low-to-high-K^+ -KR-medium and with two 10-channel, 3-way valves which were used to change form drug-free to drug-containing low- and high-K^+ -KR media.
After 15 min washout of non-specifically bound radioactivity during superfusion, the collection of fractions of 4 min (1.2 ml) each was started. After 3×4 min, the KR medium was changed to a KR medium with 25 mM KCl (ACh, 5-HT release) or 12.5 mM KCl (DA release) (high K^+ -KR medium; S1). Depolarization-induced stimulation of release by high-K^+ -KR medium was then substituted by drug- or vehicle-containing low- and high-K^+ -KR medium and superfusion continued for 3×4 min with low-K^+ -KR medium, for 1×4 min with high-K^+ -KR medium (S2), and for 2×4 min with low-K^+ -KR medium.
Compounds were added to the medium by 100-fold dilution of appropriate stock solutions (in 0.9% NaCl/H2 O) with either low- or high-K^+ -KR medium.
All superfusion fractions were collected in liquid scintillation counting vials.

[6] = test system: Alzheimer's patients; details: clinical trials with cholinesterase inhibitors, literature; cited from earlier work

IC50 [1]: 56 nM
SPECIFIC BINDING ([3]; CHAPS, 20 mM): 868 dpm
SPECIFIC BINDING ([3]; NP40): 348 dpm
SPECIFIC BINDING ([3]; Octyl glucoside, 0.4%): 511 dpm
SPECIFIC BINDING ([3]; Triton X-100, 1%): 0 dpm
SPECIFIC BINDING ([3]; Tween 80, 1%): 134 dpm
Compound: O=C1N(c2ccccc2)c2ccccc2C1(Cc1ccncc1)Cc1ccncc1 [Compound 7, 3,3-Bis(4-pyridinylmethyl)-1-phenylindolin-2-one]
DuP 996 binding activity after preincubation with phospholipase C [2]: no effect on the DuP 996 binding activity
tritiated DuP 996 binding activity after trypsin preincubation [4]: loss of tritiated DuP 996 binding activity

IC50 [1]: 62 nM
Compound: c1ccc2c(c1)-c1ccccc1C2(Cc1ccncc1)Cc1ccncc1 [Compound 9, 9,9-Bis(4-pyridinylmethyl)-9H-fluorene]
ACh Release EC100 [5]: 340 nM

Compound: CNC(=O)Oc1ccc2c(c1)[C@]1(C)CCN(C)[C@@H]1N2C [physostigmine]
cognitive measures in Alzheimer's patients [6]: limited improvement in cognitive measures

IC50 [1]: 558 nM
Compound: O=C1N2CCCc3cccc(c32)C1(Cc1ccncc1)Cc1ccncc1 [Compound 15, 1,1-Bis(4-pyridinylmethyl)5,6-dihydro-4H-pyrollo(3,2,1-IJ)quinolin-2(1H)-one]
ACh Release EC100 [5]: 14,000 nM
